Results reported in PMC7048302, “Deep Learning-driven research for drug discovery: Tackling Malaria” (PLoS Computational Biology, 2020).
Entries after “also recorded” stand apart in the source; their conditions may differ. Like-named read-outs stand apart in the source and are kept apart here.

What was measured:
[1] = test system: P. falciparum 3D7 strain (chloroquine sensitive); details: S3 File, continuous QSAR dataset; ref ChEMBL CHEMBL2366922 [25]; cited from earlier work
[2] = test system: mouse embryonic fibroblasts (NIH/3T3 cell line); details: S4 File, continuous QSAR dataset; ref ChEMBL CHEMBL614822 [25]; cited from earlier work
P. falciparum W2 strain = assay: Antiplasmodial assay (SYBR Green), multi-drug-resistant strain; type: cell-based, Plasmodium falciparum; details: for EC50: Plasmodium falciparum, read-out: EC50 (PfW2); for SI^b: Selectivity index calculated by COS7 CC50/W2 EC50
Protocol: (§1) The 3D7 and W2 strains were cultured in RPMI 1640 medium supplemented with 0.05 mg/mL gentamycin, 38.4 mM HEPES, 0.2% sodium bicarbonate, and 10% O^+ human serum, as previously described in standardized protocol. Then, erythrocytes were added to the culture to obtain a 5% of hematocrit, and incubated at 37°C under 5% CO2 atmosphere, with daily exchange of medium. The parasitemia was monitored daily in smears, stained with Giemsa. Synchronic cultures in ring stage were obtained by two consecutive treatments, at 48h intervals with a 5% solution of D-sorbitol.
(§2) Parasites synchronized at the ring stage, with 0.5% parasitemia and 2% hematocrit, were distributed in the wells of a 96-well plate. The compounds were tested in triplicates using 12-point dilution series (0.019 μM– 40 μM) over 72h. Chloroquine and pyrimethamine were used as positive controls. The in vitro susceptibility of parasite to tested drugs was measured by SYBR Green according to Hartwig and colleagues. Briefly, 100 μL of lysis buffer (20 mM Tris, 5 mM EDTA, 0,008% wt/vol saponin, 0,08% vol/vol Triton X-100 and 0.4 μL/mL of SYBR Green) were added in each well of a new black 96-well plate and 100 μL of parasite culture incubated with drugs were transferred. After homogenization, the plates were incubated for 1h in the dark. Fluorescence was measured at 490 nm excitation and 540 nm emission (CLARIOstar, Labtech BMG).
(§3) The EC50 and CC50 values were calculated by plotting the Log doses vs. inhibition (expressed as a percentage relative to the control) in GraphPad Prism v.6 (GraphPad Software, La Jolla California USA, www.graphpad.com).

P. falciparum 3D7 strain = assay: Antiplasmodial assay (SYBR Green), sensitive strain; type: cell-based, Plasmodium falciparum; details: for EC50: Plasmodium falciparum; for antiplasmodial activity (concentration range in words): asexual blood stages, 3D7 and W2 strains; for SI^a: Selectivity index calculated by COS7 CC50/3D7 EC50
Protocol: as §1, §2, §3

[3] = Cytotoxicity assay (MTT reduction); type: cell-based, monkey; details: monkey, COS-7 cells (fibroblast-like monkey kidney cell line); 72 hours, mean ± SD of three independent assays
Protocol: (§4) Cytotoxicity assays used fibroblast-like cell lines derived from monkey kidney tissue (COS7 cells), grown in DMEM medium supplemented with 10% fetal bovine serum and 0.05 mg/mL gentamicin in atmosphere containing 5% CO2 at 37°C. […] After an incubation period (72 hours), cell viability analysis was performed via the MMT reduction method (3- [4,5- dimethyl-thiazol-2-yl] -2,5-diphenyltetrazolium […]).
as §3

COS-7 cells = assay: Cytotoxicity assay (MTT reduction); type: cell-based, monkey; details: in words
Protocol: as §4, §3

[4] = W2, asexual blood stage, 72h, mean ± SD of three independent assays
[5] = 3D7, asexual blood stage, 72h, mean ± SD of three independent assays, read-out: EC50 (Pf3D7)
[6] = 3D7, asexual blood stages of sensitive and multi-drug-resistant strains, read-out: EC50

| EC50 (P. falciparum W2 strain; [4]) [nM] | EC50 (P. falciparum 3D7 strain; [5]) [nM] | Compound | pEC50 [1] | CC50 at 72 h [3] [nM] | SI^b (P. falciparum W2 strain) | further results |
| --- | --- | --- | --- | --- | --- | --- |
| – | – | Cc1ccc(-c2ccc(-c3ccc(C(=N)N)cc3)o2)cc1 | 10.24 | – | – | – |
| – | – | CC1CCC2C(C)C(O)OC3OC4(C)CCC1C32OO4 (centres unmarked) | 10.00 | – | – | – |
| – | – | COc1ccc(-c2ccc(-c3ccc(C(=N)N)cc3)o2)cc1 | 9.86 | – | – | – |
| – | – | Cn1cncc1C(O)C1=Cc2cccnc2C(N2CCN(C(=O)NC(C)(C)C)CC2)c2ccc(Cl)cc21 (centres unmarked) | – | – | – | pCC50 [2]: 9.30 |
| – | – | Cn1cncc1C(OCc1ccc(C#N)cc1C#Cc1ccccc1)c1ccc(C#N)cc1 (centres unmarked) | – | – | – | pCC50 [2]: 10.00 |
| – | – | N=C(N)c1ccc(-c2ccc(-c3ccc(F)cc3)o2)cc1 | 11.02 | – | – | – |
| – | – | CCN(CC)CCCC(C)Nc1ccnc2cc(Cl)ccc12 (centres unmarked) [Chloroquine, chloroquine, reference compound] | – | – | – | EC50 (P. falciparum W2 strain; W2, 72 h): 173 ± 20 nM; EC50 (P. falciparum 3D7 strain; 3D7, 72 h, read-out: EC50 (Pf3D7)): 11 ± 1 nM |
| > 40000 | > 40000 | CC1(C)NC(C2=NOC(C)(C)N2)=NO1 [LabMol-148] | – | > 200000 | – | – |
| 509 ± 177 | 1450 ± 524 | Oc1ccccc1C1N=C(c2ccccc2)N=C(c2ccccc2)N1 (centres unmarked) [LabMol-149, 2-(4,6-diphenyl-1,2-dihydro-1,3,5-triazin-2-yl)phenol] | – | > 100000 | >196 | cytotoxicity in mammalian cells (COS-7 cells): low cytotoxicity; EC50 (P. falciparum 3D7 strain; [6]): < 500 nM; antiplasmodial activity (concentration range in words) (P. falciparum 3D7 strain): submicromolar and low nanomolar range; also recorded: activity at submicromolar concentrations |
| > 40000 | > 40000 | Nc1cc(N)nc(N2CCOCC2)n1 [LabMol-150] | – | > 200000 | – | – |
| 1620 ± 321 | 1910 ± 292 | CC(=O)N(C1=C(N2CCOCC2)C(=O)c2ccccc2C1=O)c1ccc(C(=O)O)cc1 [LabMol-151, 4-{N-[3-(morpholin-4-yl)-1,4-dioxo-1,4-dihydronaphthalen-2-yl]acetamido}benzoic acid] | – | 141000 ± 11200 | 87.1 | cytotoxicity in mammalian cells (COS-7 cells): low cytotoxicity; SI^a (P. falciparum 3D7 strain): 73.7; antiplasmodial activity (concentration range in words) (P. falciparum 3D7 strain): submicromolar and low nanomolar range; also recorded: activity at submicromolar concentrations |
| 78 ± 14 | 49 ± 29 | Fc1cccc(Nc2nc(NCC3CCCO3)c3ccccc3n2)c1 (centres unmarked) [LabMol-152, N2-(3-fluorophenyl)-N4-[(oxolan-2-yl)methyl]quinazoline-2,4-diamine] | – | 16700 ± 10300 | 214.1 | cytotoxicity in mammalian cells (COS-7 cells): low cytotoxicity; EC50 (P. falciparum 3D7 strain; [6]): < 500 nM; SI^a (P. falciparum 3D7 strain): 340.8; antiplasmodial activity (concentration range in words) (P. falciparum 3D7 strain): submicromolar and low nanomolar range |
| 18200 ± 4540 | 37 ± 7 | CCc1nc(N)nc(N)c1-c1ccc(Cl)cc1 [Pyrimethamine, pyrimethamine, reference compound] | – | > 100000 | 5.5 | SI^a (P. falciparum 3D7 strain): 2,702 |
